Laboratory results published in paper PMC3227451, “Structure-based development of novel sirtuin inhibitors” (Aging (Albany NY), 2011).

Columns and labels:
Format in all cases: biochemical
[1] = molecular target: T1, Sirt2 (Homo sapiens, UniProt Q8IXJ6); experiment: Fluor-de-Lys peptide deacetylation assay, Sirt2; conditions: 100 μM compound; 0.1 mM FdL-2 peptide, 0.5 mM NAD+
T1 sequence (Q8IXJ6 34-356): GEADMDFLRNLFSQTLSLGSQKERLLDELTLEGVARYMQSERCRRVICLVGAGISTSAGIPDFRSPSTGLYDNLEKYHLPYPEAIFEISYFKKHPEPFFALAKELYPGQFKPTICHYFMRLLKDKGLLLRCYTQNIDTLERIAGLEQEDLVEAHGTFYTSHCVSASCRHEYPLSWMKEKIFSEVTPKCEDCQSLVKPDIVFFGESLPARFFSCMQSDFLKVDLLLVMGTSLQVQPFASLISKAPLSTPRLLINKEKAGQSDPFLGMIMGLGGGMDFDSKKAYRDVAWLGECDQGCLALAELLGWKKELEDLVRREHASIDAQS
Experimental: The Sirt2 construct was expressed in E. coli Rosetta2 cells (Merck) in LB/Ampicillin/Chloramphenicol medium. Cells were grown at 37 °C, and expression induced at an OD600 of 0.6-0.8 for 4 h with 0.5 mM IPTG. Harvested cells were resuspended in buffer A (50 mM Tris/HCl pH 7.8, 200 mM NaCl, 2 mM DTT), disrupted with a Sonifier, and cell debris removed by 40 min centrifugation at 4 °C, 18000 rpm in a HFA22.50 rotor. The supernatant was supplemented with 10 mM imidazole and incubated with Ni-NTA resin for 1 h at 4 °C. […] The protein was concentrated in an amicon unit (Millipore, Billerica, USA) and digested over night at 4 °C with TEV-protease. The protease was removed from cleaved Sirt2 by incubation with Ni-NTA resin for 1 h at 4 °C. The protein was concentrated, 1:5 diluted with 50 mM Tris/HCl, pH 7.8, and applied to a HiTrap Q anion exchange column (GE Healthcare) equilibrated with 50 mM Tris/HCl, pH 7.8, 50 mM NaCl, 2 mM DTT and eluted with a gradient (20 column volumes) to 50 mM Tris/HCl, pH 7.8, 1 M NaCl, 2 mM DTT. Sirt2 was then applied to a Superdex200 gel filtration column (GE Healthcare) equilibrated in 20 mM Tris/HCl, pH 7.8, 150 mM NaCl, 2 mM DTT. The eluted protein was analyzed by SDS-PAGE, re-concentrated, and shock-frozen in liquid nitrogen for storage at -80 °C.
(§1) The commercial Fluor-de-Lys (FdL) assay kits 1 and 2 (Biomol, Plymouth Meeting, USA) were used to test the deacetylase activity of the four Sirtuins. In both kits the substrate derived from p53 is composed of three amino acids, the acetyl lysine and a C-terminally attached fluorophor. For Sirt2 and 3, FdL-2 peptide (QPK(acetyl-K)) was used, and FdL-1 peptide (RHK(acetyl-K)) for Sirt5 and Sirt6. All tests were done with 0.1 mM of the respective FdL peptide and 0.5 mM NAD^+ as substrates.
(§2) NCI compound stocks were prepared by dissolving them in DMSO at a concentration of 5 mM. The initial screens with all 40 compounds contained 5 μl Sirtuin solution (Sirt2/3 0.1 mg/ml stock concentration; Sirt5/6 1 mg/ml), 1 μl of compound stock (resulting in a 100 μM end concentration), 15 μl FdL substrate, and assay buffer (supplied in the assay kit) to a total volume of 50 μl. As control reactions, peptide with either the compound (without Sirtuin) or with Sirtuin and DMSO instead of compound were measured. After starting the reactions by adding the FdL substrate, assays were incubated for 30 min at 37 °C. Subsequently, 50 μl of a 10 mg/ml trypsin stock (“Developer solution”) were added and the reactions were incubated for 45 min at room temperature. Fluorescence values were measured in a fluorometric plate reader with excitation at 360 nm and read out at 485 nm. Values were then corrected with the control reaction (same compound, but without Sirtuin).
(§3) All measurements shown are averages of duplicates (screen) or triplicates (dose-response curves), and representatives of at least two independent replications. Error bars indicate standard deviations.

[2] = molecular target: T2, Sirt3 (Homo sapiens, UniProt Q9NTG7); experiment: Fluor-de-Lys peptide deacetylation assay, Sirt3; conditions: 100 μM compound; 0.1 mM FdL-2 peptide, 0.5 mM NAD+
T2 construct: Sirt3 residues 114-399; His-tag with linker comprising a TEV protease cleavage site (N); made in house; host or cells: E. coli
T2 sequence (Q9NTG7 114-399): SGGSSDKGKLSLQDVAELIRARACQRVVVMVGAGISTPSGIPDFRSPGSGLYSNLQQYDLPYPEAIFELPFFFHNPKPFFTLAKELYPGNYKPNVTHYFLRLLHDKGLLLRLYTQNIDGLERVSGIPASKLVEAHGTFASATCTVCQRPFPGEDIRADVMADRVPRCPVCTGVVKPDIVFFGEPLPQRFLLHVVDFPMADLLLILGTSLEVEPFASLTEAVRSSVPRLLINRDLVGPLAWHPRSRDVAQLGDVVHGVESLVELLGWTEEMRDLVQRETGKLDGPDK
Experimental: (§4) Sirt3 was expressed in E. coli and purified via Ni-NTA and size exclusion chromatography as described elsewhere, and Sirt5 according to the protocol of Schuetz et al.. […] The protein was bound to the HiTrapQ column in buffer A and eluted in a gradient to buffer A supplemented with 400 mM KCl. Fractions were analyzed by SDS-PAGE, and the Sirt1 fractions were pooled and transferred into buffer A using a NAP column (GE Healthcare).
as §1, §2, §3

[3] = molecular target: T3, Sirt5 (Homo sapiens, UniProt Q9NXA8); experiment: Fluor-de-Lys peptide deacetylation assay, Sirt5; conditions: 100 μM compound; 0.1 mM FdL-1 peptide, 0.5 mM NAD+
T3 construct: Sirt5 residues 34-302; His-tag with linker comprising a TEV protease cleavage site (N); made in house
T3 sequence (Q9NXA8 34-302): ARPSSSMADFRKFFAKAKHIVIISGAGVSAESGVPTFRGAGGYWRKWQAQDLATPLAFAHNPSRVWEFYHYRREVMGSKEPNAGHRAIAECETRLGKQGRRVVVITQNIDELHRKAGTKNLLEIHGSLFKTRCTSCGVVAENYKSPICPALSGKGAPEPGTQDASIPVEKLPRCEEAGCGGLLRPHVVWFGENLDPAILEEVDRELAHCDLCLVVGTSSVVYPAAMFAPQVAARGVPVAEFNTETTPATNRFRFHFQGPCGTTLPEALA
Experimental: as §4, §1, §2, §3

[4] = molecular target: T4, Sirt6 (Homo sapiens, UniProt Q8N6T7); experiment: Fluor-de-Lys peptide deacetylation assay, Sirt6; conditions: 100 μM compound; 0.1 mM FdL-1 peptide, 0.5 mM NAD+
T4 construct: Sirt6 residues 13-308; His-tag with linker comprising a TEV protease cleavage site (N, cleaved yes); made in house; host or cells: E. coli Rosetta2
Experimental: as §1, §2, §3

T4 sequence (Q8N6T7 13-308): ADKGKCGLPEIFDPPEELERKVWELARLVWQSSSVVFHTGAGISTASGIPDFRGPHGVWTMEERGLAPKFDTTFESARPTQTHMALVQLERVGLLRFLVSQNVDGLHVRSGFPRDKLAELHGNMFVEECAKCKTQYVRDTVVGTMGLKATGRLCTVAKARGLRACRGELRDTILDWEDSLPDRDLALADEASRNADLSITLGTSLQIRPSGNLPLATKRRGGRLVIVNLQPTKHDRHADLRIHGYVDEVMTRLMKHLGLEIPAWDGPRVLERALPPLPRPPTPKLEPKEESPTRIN

Effect on the activity of Sirt2 [1]	Effect on the activity of Sirt3 [2]	Effect on the activity of Sirt5 [3]	Effect on the activity of Sirt6 [4]	SMILES
--- (no such effect)	--- (no such effect)	--- (no such effect)	--- (no such effect)	O=C1C2C(c3ccccc3)NC(c3ccccc3)C1C(c1ccccc1)NC2c1ccccc1 (centres unmarked) [CSC29, 2,4,6,8-tetraphenyl-3,7-diazabicyclo[3.3.1]nonan-9-one]
--- (no such effect)	--- (no such effect)	--- (no such effect)	--- (no such effect)	Cc1ccc(C2(C)CCC(=NN=C3CCC(C)(c4ccc(C)c(C)c4)c4cc(C)c(C)cc43)c3cc(C)c(C)cc32)cc1C (centres unmarked) [CSC26, 4-(3,4-dimethylphenyl)-4,6,7-trimethyl-3,4-dihydro-1(2H)-naphthalenone (4-(3,4-dimethylphenyl)-4,6,7-trimethyl-3,4-dihydro-1(2H)-naphthalenylidene)hydrazone]
--- (no such effect)	--- (no such effect)	--- (no such effect)	--- (no such effect)	O=C1c2cccc([N+](=O)[O-])c2C(=O)N1c1ncn[nH]1 [CSC25, 4-(hydroxy(oxido)amino)-2-(1H-1,2,4-triazol-5-yl)-1H-isoindole-1,3(2H)-dione]
--- (no such effect)	--- (no such effect)	activation	activation	O=S1(=O)C(c2ccccc2)C(N2CCCCC2)C1C1CC2c3ccccc3C1c1ccccc12 (centres unmarked) [CSC33]

Further lines, the compound ahead of its results:

SMILES	Effect on the activity of Sirt2 [1]	Effect on the activity of Sirt3 [2]	Effect on the activity of Sirt5 [3]	Effect on the activity of Sirt6 [4]
O=C1OC2(c3ccc(O)cc3Oc3cc(O)ccc32)c2c1c(-c1ccccc1)c(-c1ccccc1)c(-c1ccccc1)c2-c1ccccc1 [CSC28]	inhibition (significant inhibitory effects (>25% loss of activity))	--- (no such effect)	--- (no such effect)	activation
O=S(=O)(c1ccc2ccccc2c1)N1CCN(S(=O)(=O)c2ccc3ccccc3c2)CC1 [CSC12, 1,4-bis(2-naphthylsulfonyl)piperazine]	--- (no such effect)	--- (no such effect)	--- (no such effect)	--- (no such effect)
Cc1nc2ccccc2nc1-c1ccc(/N=[N+](\[O-])c2ccc(-c3nc4ccccc4nc3C)cc2)cc1 [CSC15, 2-(4-(1-hydroxy-2-(4-(3-methyl-2-quinoxalinyl)phenyl)-1^5-diazenyl)phenyl)-3-methylquinoxaline]	--- (no such effect)	--- (no such effect)	--- (no such effect)	--- (no such effect)
c1ccc(CN2COc3c(ccc4c5c(ccc34)CN(Cc3ccccc3)CO5)C2)cc1 [CSC18]	--- (no such effect)	--- (no such effect)	--- (no such effect)	--- (no such effect)
O=C1c2ccccc2C(=O)c2c(Nc3cc4c5c(ccc6c7ccc8c9c(cc(Nc%10cccc%11c%10C(=O)c%10ccccc%10C%11=O)c(c3c56)c97)-c3ccccc3C8=O)C(=O)c3ccccc3-4)cccc21 [CSC6, 16,17-bis((9,10-dioxo-9,10-dihydro-1-anthracenyl)amino)anthra[9,1,2-cde]benzo[rst]pentaphene-5,10-dione]	inhibition (significant inhibitory effects (>25% loss of activity))	--- (no such effect)	--- (no such effect)	inhibition (significant inhibitory effects (>25% loss of activity))
N=C(c1ccc2ccccc2c1)c1ccccc1Cc1ccccc1 [CSC22, (2-benzylphenyl)(2-naphthyl)methanimine]	inhibition (significant inhibitory effects (>25% loss of activity))	--- (no such effect)	--- (no such effect)	--- (no such effect)
c1ccc2c(c1)C(=Nc1ccc(N=C3c4ccccc4-c4ccccc43)cc1)c1ccccc1-2 [CSC2, N1,N4-di(9H-fluoren-9-ylidene)-1,4-benzenediamine]	inhibition (significant inhibitory effects (>25% loss of activity))	--- (no such effect)	--- (no such effect)	--- (no such effect)
